In general, mortality refers to the percentage killed.

In one data set the test system is larvae of brown planthopper (Nilaparvata lugens Stahl). As to the kind of experiment: Test Example 1: insecticidal activity against larvae of brown planthopper. Format: in vivo. The settings on record: 120 h, third-instar larvae, 25° C., 5 days after treatment. The method, boiled down:
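Rice seedlings at 1.5-leaf stage were dipped for 30 s in a 400 ppm test composition, air-dried, and infested with third-instar N. lugens larvae. After holding at 25 °C, mortality was scored 5 or 7 days post-treatment from three replicates.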
As to `CCC(C)N1C(=O)N(c2ccc(C)cc2)CSC1=NC(C)(C)C` (centres unmarked) [Compound 319], the mortality at 400 ppm was 100%.

`CCN1C(=O)N(c2ccccc2)CSC1=NC(C)C` [Compound 127] had a mortality at 400 ppm of 100%.

`CC(C)CN=C1SCN(c2ccccc2)C(=O)N1CC(C)C` [Compound 148]: the mortality at 400 ppm was 100%.

Turning to `C=CCN1C(=O)N(c2ccccc2)CSC1=NCCC` [Compound 140], the mortality at 400 ppm came to 100%.

In the case of `CC(C)CN1C(=O)N(c2ccccc2)CSC1=NC(C)(C)C` [Compound 150], the mortality at 400 ppm worked out at 100%.

In turn, `CC(C)N1C(=O)N(c2ccccc2)CSC1=NC(C)(C)CC(C)(C)C` [Compound 156] yielded a mortality at 400 ppm of 100%.

On to `CCC(C)N1C(=O)N(c2ccccc2Cl)CSC1=NC(C)(C)C` (centres unmarked) [Compound 249], for which the mortality at 400 ppm is 100%.

In turn, `CC(C)(C)N=C1SCN(c2ccccc2)C(=O)N1C1CCCCC1` [Compound 155, 2-t-Butylimino-3-cyclohexyl-5-phenyl-tetrahydro-1,3,5-thiadiazin-4-one] displayed a mortality at 400 ppm of 50%.

In turn, `CCCN=C1SCN(c2ccccc2)C(=O)N1CCC` [Compound 134] had a mortality at 400 ppm of 100%.

Compound `CCN=C1SCN(c2ccccc2)C(=O)N1c1ccccc1` [Compound 162] showed a mortality at 400 ppm of 100%.

`CCCN1C(=O)N(c2ccccc2)CSC1=NC(C)(C)C` [Compound 137] returned a mortality at 400 ppm of 80%.

In turn, `C=CCN1C(=O)N(c2ccccc2)CSC1=NC(C)CC` (centres unmarked) [Compound 142] came in with a mortality at 400 ppm of 100%.

For the next data set, the system named is larvae of white-backed planthopper (Sogatella furcifera Horvath). Kind of data set: Test Example 2: insecticidal activity against larvae of white-backed planthopper. Format: in vivo. The settings on record: 168 h, 400 ppm, first-instar larvae, 25° C., seven days after treatment, read-out: Mortality. The method, boiled down: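 Rice seedlings at 1.5-leaf stage were dipped 30 s in 400 ppm test composition, air-dried, and infested with five first-instar larvae. Tubes were held at 25°C, and mortality was scored at 7 days from triplicate tests.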
Take `CCC(C)N1C(=O)N(c2ccc(C)cc2)CSC1=NC(C)(C)C` (centres unmarked) [Compound 319]: the mortality at 400 ppm is 100%.

Another data set concerns two-spotted spider mite (Tetranychus urticae Koch). Kind of data set: Test Example 3: activity to two-spotted spider mite. Format: in vivo. Particulars: 120 h, 1,000 ppm, 5 days after treatment. The source says:
Activity to two-spotted spider mite (Tetranychus urticae Koch).
Testing method: Two-spotted spider mites were set free on the pot-planted soybean in a greenhouse. On the next day, a test composition of 1,000 ppm concentration was sprayed over the soybean by means of a spray gun. Two days or five days after the treatment, dead-and-survival was inspected to calculate the mortality.
In turn, `CCC(C)N1C(=O)N(c2ccc(C)cc2)CSC1=NC(C)(C)C` (centres unmarked) [Compound 319] had a mortality at 1000 ppm of 100%.

As to `CCC(C)N1C(=O)N(c2ccccc2Cl)CSC1=NC(C)(C)C` (centres unmarked) [Compound 249], the mortality at 1000 ppm turned out to be 70%.

Another data set deals with cirrus red mite (Panonychus citri McGregor). Kind of data set: Test Example 4: activity to citrus red mite (Rothamstead method). Format: in vivo. Also on record: concentration or dose not given beside the values. The settings on record: two days after treatment, 25° C.; 2880 min. As to the method:
Activity to cirrus red mite (Panonychus citri McGregor).
Testing method: The test was performed by Rothamstead method. A test composition was sprayed by means of a spray gun over grapefruit leaves infested with citrus red mites. After air-drying the grapefruit was left standing in a constant temperature cabinet at 25° C. Two days after the treatment, the number of survived mites was counted to calculate the mortality.
The compound `CCC(C)N1C(=O)N(c2ccc(C)cc2)CSC1=NC(C)(C)C` (centres unmarked) [Compound 319] displayed a Mortality of 100%.

In turn, `CC(C)CN=C1SCN(c2ccccc2)C(=O)N1CC(C)C` [Compound 148] displayed a Mortality of 100%.

As for `CCC(C)N1C(=O)N(c2ccccc2Cl)CSC1=NC(C)(C)C` (centres unmarked) [Compound 249], the Mortality is 100%.

A further data set deals with larvae of green rice leafhopper (Nephotettix cincticeps Uhler). Kind of data set: Test Example 5: activity against larvae of green rice leafhopper. Type of data set: in vivo. The settings on record: 168 h, 400 ppm, second-instar larvae, 25° C., seven days after treatment, read-out: Mortality. In a few lines: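 Rice seedlings at 1.5 leaf age dipped 30 seconds in 400 ppm test composition, air-dried, then infested with five second-instar larvae. Kept at 25° C; mortality scored seven days after treatment, three replicates.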
With `CCC(C)N1C(=O)N(c2ccc(C)cc2)CSC1=NC(C)(C)C` (centres unmarked) [Compound 319], the mortality at 400 ppm was 100%.

Turning to `C=CCN1C(=O)N(c2ccccc2)CSC1=NCCC` [Compound 140], the mortality at 400 ppm stood at 100%.

`CC(C)CN1C(=O)N(c2ccccc2)CSC1=NC(C)(C)C` [Compound 150]: the mortality at 400 ppm is 90%.

As for `CC(C)N1C(=O)N(c2ccccc2)CSC1=NC(C)(C)CC(C)(C)C` [Compound 156], the mortality at 400 ppm was found to be 100%.

On to `CCC(C)N1C(=O)N(c2ccccc2Cl)CSC1=NC(C)(C)C` (centres unmarked) [Compound 249], for which the mortality at 400 ppm was 100%.

As to `C=CCN1C(=O)N(c2ccccc2)CSC1=NC(C)CC` (centres unmarked) [Compound 142], the mortality at 400 ppm was 100%.

The next data set concerns larvae of house mosquito (Culex pipiens pallens Coquillett). Kind of data set: Test Example 6: insecticidal activity to larvae of house mosquito. The settings on record: 120 h. Format: in vivo. The method, boiled down:
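Twenty first-instar Culex pipiens pallens larvae placed with feed in test composition diluted in deionized water to 10 ppm. Kept at 25 °C, and mortality counted five days after treatment.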
Turning to `CCC(C)N1C(=O)N(c2ccc(C)cc2)CSC1=NC(C)(C)C` (centres unmarked) [Compound 319], the mortality at 10 ppm was 100%.

`CCN1C(=O)N(c2ccccc2)CSC1=NC(C)C` [Compound 127] returned a mortality at 10 ppm of 100%.

As to `C=CCN1C(=O)N(c2ccccc2)CSC1=NCCC` [Compound 140], the mortality at 10 ppm is 100%.

For `CC(C)CN1C(=O)N(c2ccccc2)CSC1=NC(C)(C)C` [Compound 150], the mortality at 10 ppm was 100%.

Take `CC(C)N1C(=O)N(c2ccccc2)CSC1=NC(C)(C)CC(C)(C)C` [Compound 156]: the mortality at 10 ppm was determined as 100%.

As to `CCC(C)N1C(=O)N(c2ccccc2Cl)CSC1=NC(C)(C)C` (centres unmarked) [Compound 249], the mortality at 10 ppm amounted to 100%.

Turning to `CC(C)(C)N=C1SCN(c2ccccc2)C(=O)N1C1CCCCC1` [Compound 155, 2-t-Butylimino-3-cyclohexyl-5-phenyl-tetrahydro-1,3,5-thiadiazin-4-one], the mortality at 10 ppm came out at 100%.

`CCCN=C1SCN(c2ccccc2)C(=O)N1CCC` [Compound 134] showed a mortality at 10 ppm of 80%.

Turning to `CCN=C1SCN(c2ccccc2)C(=O)N1c1ccccc1` [Compound 162], the mortality at 10 ppm was found to be 100%.

For the compound `CCCN1C(=O)N(c2ccccc2)CSC1=NC(C)(C)C` [Compound 137], the mortality at 10 ppm came out at 100%.

As to `C=CCN1C(=O)N(c2ccccc2)CSC1=NC(C)CC` (centres unmarked) [Compound 142], the mortality at 10 ppm is 100%.

A further data set has as its system larvae of 28-spotted lady beetle (Epilachna vigintioctopunctana Fabricius). Kind of data set: Test Example 8: insecticidal activity against larvae of 28-spotted lady beetle. Type of data set: in vivo. The settings on record: 120 h. As to the method:
Insecticidal activity against larvae of 28-spotted lady beetle (Epilachna vigintioctopunctana Fabricius).
Testing method: Leaflets of tomato grown in a greenhouse were dipped in a test composition of 100 ppm concentration for 30 seconds and after that the leaflets were dried by air. In a Petri dish covered on the bottom with a piece of filter paper, were introduced 1 ml of water and three treated tomato leaflets. After having been infested with seven second-instar larvae of 28-spotted lady beetle, the Petri dish was left standing in a constant temperature cabinet at 25° C. Five days after the treatment, the dead-and-survival was inspected to calculate the mortality (2-replication test).
The compound `CCC(C)N1C(=O)N(c2ccc(C)cc2)CSC1=NC(C)(C)C` (centres unmarked) [Compound 319] yielded a mortality at 100 ppm of 100%.

Compound `CCN1C(=O)N(c2ccccc2)CSC1=NC(C)C` [Compound 127] returned a mortality at 100 ppm of 80%.

Turning to `CC(C)CN=C1SCN(c2ccccc2)C(=O)N1CC(C)C` [Compound 148], the mortality at 100 ppm stood at 100%.

With `C=CCN1C(=O)N(c2ccccc2)CSC1=NCCC` [Compound 140], the mortality at 100 ppm stood at 50%.

On to `CC(C)CN1C(=O)N(c2ccccc2)CSC1=NC(C)(C)C` [Compound 150], for which the mortality at 100 ppm was 80%.

On to `CC(C)N1C(=O)N(c2ccccc2)CSC1=NC(C)(C)CC(C)(C)C` [Compound 156], for which the mortality at 100 ppm came out at 90%.

With `CCC(C)N1C(=O)N(c2ccccc2Cl)CSC1=NC(C)(C)C` (centres unmarked) [Compound 249], the mortality at 100 ppm worked out at 100%.

Take `CC(C)(C)N=C1SCN(c2ccccc2)C(=O)N1C1CCCCC1` [Compound 155, 2-t-Butylimino-3-cyclohexyl-5-phenyl-tetrahydro-1,3,5-thiadiazin-4-one]: the mortality at 100 ppm came out at 100%.

On to `CCCN=C1SCN(c2ccccc2)C(=O)N1CCC` [Compound 134], for which the mortality at 100 ppm came to 80%.

Consider `CCCN1C(=O)N(c2ccccc2)CSC1=NC(C)(C)C` [Compound 137], for which the mortality at 100 ppm came out at 50%.

As for `C=CCN1C(=O)N(c2ccccc2)CSC1=NC(C)CC` (centres unmarked) [Compound 142], the mortality at 100 ppm worked out at 100%.

The same data set, now with this note: 120 h, 100 ppm, second-instar larvae, 25° C., five days, read-out: Mortality.
For the compound `CCN=C1SCN(c2ccccc2)C(=O)N1c1ccccc1` [Compound 162], the mortality at 100 ppm is 50%.

The next data set concerns larvae of bug. (Togo hemipterus Scott). Kind of data set: Test Example 9: insecticidal activity against larvae of bug. Type of data set: in vivo. Particulars: 120 h, 10 ppm, first-instar larvae, 25° C., five days, read-out: Mortality. As to the method:
Insecticidal activity against larvae of bug. (Togo hemipterus Scott).
Test method: Into a glass tube (1.6 cm in internal diameter and 9 cm in length), was added 1 ml of a test composition in 10 ppm concentration just to moisten the absorbent cotton. Five rice seeds and five first-instar larvae were introduced into the glass tube and the tube end was covered with a piece of Japanese paper. The glass tube was kept in a constant temperature cabinet at 25° C. Five days after treatment, the dead-and-survival was inspected to calculate the mortality (3-replication test).
Take `CCN1C(=O)N(c2ccccc2)CSC1=NC(C)C` [Compound 127]: the mortality at 10 ppm is 100%.

Regarding `C=CCN1C(=O)N(c2ccccc2)CSC1=NCCC` [Compound 140], the mortality at 10 ppm is 50%.

Regarding `CC(C)CN1C(=O)N(c2ccccc2)CSC1=NC(C)(C)C` [Compound 150], the mortality at 10 ppm came out at 50%.

In the case of `CC(C)N1C(=O)N(c2ccccc2)CSC1=NC(C)(C)CC(C)(C)C` [Compound 156], the mortality at 10 ppm came out at 50%.

For the compound `CC(C)(C)N=C1SCN(c2ccccc2)C(=O)N1C1CCCCC1` [Compound 155, 2-t-Butylimino-3-cyclohexyl-5-phenyl-tetrahydro-1,3,5-thiadiazin-4-one], the mortality at 10 ppm amounted to 100%.

Take `CCCN=C1SCN(c2ccccc2)C(=O)N1CCC` [Compound 134]: the mortality at 10 ppm was 80%.

Turning to `CCN=C1SCN(c2ccccc2)C(=O)N1c1ccccc1` [Compound 162], the mortality at 10 ppm was determined as 50%.

On to `CCCN1C(=O)N(c2ccccc2)CSC1=NC(C)(C)C` [Compound 137], for which the mortality at 10 ppm came out at 50%.

Take `C=CCN1C(=O)N(c2ccccc2)CSC1=NC(C)CC` (centres unmarked) [Compound 142]: the mortality at 10 ppm stood at 100%.

Source of the values: US4159328A, “Tetrahydro-1,3,5-thiadiazin-4-one derivative” (Nihon Nohyaku Co., Ltd., priority 1977, dated 1979).
